Patent publication US20180250308A1, “NR2B SELECTIVE NMDA-RECEPTOR ANTAGONISTS FOR TREATMENT OF IMMUNE-MEDIATED INFLAMMATORY DISEASES” (WESTFALISCHE WILHELMS-UNIVERSITAT MUNSTER, priority 2015, published 2018)

What was measured:
σ1 receptor = target: T1, σ1 receptor (Cavia porcellus, UniProt Q60492); experiment: Binding assay with [3H]-(+)-pentazocine, σ1 receptor; settings: guinea pig brain membranes, read-out: affinity to the σ1 receptor
T1 construct: Five guinea pig brains (Harlan Winkelmann, Borchen, Germany) were homogenized; tissue Harlan Winkelmann, Borchen, Germany; host or cells: guinea pig brain membrane preparation
Experimental: Five guinea pig brains (Harlan Winkelmann, Borchen, Germany) were homogenized with the potter (500-800 rpm, 10 up-and-down strokes) in 6 volumes of cold 0.32 M sucrose. […] This procedure was repeated twice.
The incubation was terminated by rapid filtration through the presoaked filtermats using a cell harvester.

[1] = target: T2, polyamine binding site of the NR2B subunit of the NMDA receptor (Homo sapiens, UniProt Q05586+Q13224); experiment: Filtration-based receptor binding assay with [3H]-Ifenprodil, NR2B subunit; settings: membranes of L(tk-) cells expressing NR1-1a/NR2B, Ki by Cheng-Prusoff, mean ± SEM, read-out: affinity to the NR2B binding site of the NMDA receptor
T2 construct: host or cells: mouse L(tk-) cells; expression induced with dexamethasone, then membrane homogenate prepared
Experimental: The determination was performed using a filtration-based receptor binding assay on 96-well-multiplates for the polyamine binding site of the NR2B subunit of the NMDA receptor using [^3H]-Ifenprodil as radioligand.
Mouse L(tk-) cells stably transfected with the dexamethasone-inducible eukaryotic expression vectors pMSG NR1-1a, pMSG NR2B in a 1:5 ratio were a generous gift from D. […] Steinhilber (Department of Pharmacy, University of Frankfurt, Germany). The transformed L(tk-) cells were grown in Modified Earl's Medium (MEM) containing 10% of standardized FCS (Biochrom AG, Berlin, Germany). The expression of the NMDA receptor at the cell surface was induced after the cell density of the adherent growing cells had reached approximately 90% of confluency. […]
For the binding assay, the cell pellet was resuspended in PBS buffer and the number of cells was determined using an improved Neubauer's counting chamber (VWR, Darmstadt, Germany). […]
The competitive binding assay was performed with the radioligand [^3H]-Ifenprodil (60 Ci/mmol; Perkin Elmer) using standard 96-well-multiplates (Diagonal, Muenster, Germany). […] The bound radioactivity trapped on the filters was counted in the scintillation analyzer (Microbeta Counter, Perkin Elmer). […] The non-specific binding was determined with 10 μM unlabeled Ifenprodil. […]

T1 sequence (Q60492 whole entry): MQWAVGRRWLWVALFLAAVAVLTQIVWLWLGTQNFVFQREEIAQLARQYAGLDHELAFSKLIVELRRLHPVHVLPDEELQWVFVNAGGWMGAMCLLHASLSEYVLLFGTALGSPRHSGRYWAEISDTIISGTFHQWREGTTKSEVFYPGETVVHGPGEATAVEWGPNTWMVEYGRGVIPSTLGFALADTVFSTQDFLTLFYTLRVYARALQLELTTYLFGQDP
T2 sequence (Q13224 27-1484, other chains not shown): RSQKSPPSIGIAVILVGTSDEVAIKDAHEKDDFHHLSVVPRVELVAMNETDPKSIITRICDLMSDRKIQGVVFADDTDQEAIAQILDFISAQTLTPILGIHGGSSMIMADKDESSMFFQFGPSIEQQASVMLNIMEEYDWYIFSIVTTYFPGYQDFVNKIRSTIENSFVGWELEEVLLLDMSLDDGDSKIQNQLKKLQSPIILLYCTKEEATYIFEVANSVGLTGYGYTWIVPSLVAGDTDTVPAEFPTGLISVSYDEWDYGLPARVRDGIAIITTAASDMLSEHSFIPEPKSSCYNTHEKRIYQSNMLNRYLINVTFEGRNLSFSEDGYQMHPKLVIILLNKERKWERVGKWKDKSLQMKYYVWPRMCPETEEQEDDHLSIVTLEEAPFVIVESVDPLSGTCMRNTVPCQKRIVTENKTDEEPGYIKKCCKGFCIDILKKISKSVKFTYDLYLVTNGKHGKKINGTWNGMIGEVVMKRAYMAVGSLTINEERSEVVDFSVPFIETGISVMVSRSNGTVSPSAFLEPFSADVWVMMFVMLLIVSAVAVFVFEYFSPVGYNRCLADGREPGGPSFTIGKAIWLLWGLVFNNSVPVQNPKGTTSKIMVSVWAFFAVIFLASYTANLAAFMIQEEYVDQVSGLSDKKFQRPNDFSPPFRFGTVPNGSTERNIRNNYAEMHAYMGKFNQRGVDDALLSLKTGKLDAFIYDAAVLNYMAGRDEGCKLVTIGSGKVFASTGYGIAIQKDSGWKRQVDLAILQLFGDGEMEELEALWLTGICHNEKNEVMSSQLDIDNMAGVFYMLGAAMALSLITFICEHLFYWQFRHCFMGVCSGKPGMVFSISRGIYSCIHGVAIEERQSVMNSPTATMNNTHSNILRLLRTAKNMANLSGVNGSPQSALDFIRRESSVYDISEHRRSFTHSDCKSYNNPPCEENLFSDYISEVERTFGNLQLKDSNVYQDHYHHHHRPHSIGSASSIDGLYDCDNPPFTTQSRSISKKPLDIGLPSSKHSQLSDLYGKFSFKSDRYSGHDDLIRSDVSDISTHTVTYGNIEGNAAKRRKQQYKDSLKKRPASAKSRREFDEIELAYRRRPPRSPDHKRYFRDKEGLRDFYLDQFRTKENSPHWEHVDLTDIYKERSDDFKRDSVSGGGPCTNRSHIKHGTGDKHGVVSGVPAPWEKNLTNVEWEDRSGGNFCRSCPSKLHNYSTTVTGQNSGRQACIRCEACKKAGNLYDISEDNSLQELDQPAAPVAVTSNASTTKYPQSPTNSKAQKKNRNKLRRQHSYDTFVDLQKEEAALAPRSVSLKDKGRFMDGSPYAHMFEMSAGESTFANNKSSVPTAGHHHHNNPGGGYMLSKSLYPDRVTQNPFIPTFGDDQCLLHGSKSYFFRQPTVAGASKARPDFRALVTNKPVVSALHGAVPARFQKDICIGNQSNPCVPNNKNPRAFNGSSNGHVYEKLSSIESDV

`COc1ccc2c(c1)CCN(CCCCc1ccccc1)CC2O` (centres unmarked) [formula (4)] gave a Ki (σ1 receptor) of 0.194 µM and a Ki [1] of 0.0153 ± 0.0012 µM.
